# Test results from US20220364132A1, “METHOD FOR FORMING A STORAGE STABLE H[…] A LIGNO[…]” (Sekab E- Technology AB, priority 2019, published 2022).
# Assays:
# Type in all cases: cell-based
# lactic acid bacteria = experiment: Bacterial contamination in a sugar-rich hydrolysate (synthetic media), glucose and lactic acid by HPLC; conditions: 5, 10, 20 and 40 mM, room temperature, 11 days, FIG. 3
# Description: The aim of this experiment was to test the potential of sodium sulfite to control bacterial contamination in the storage tanks which contain sugar-rich hydrolysate streams before they are used in fermentations. The hydrolysate is representative of a hydrolysate according to the present disclosure.
# (§1) To test the theory, synthetic media was made containing about 90 g/l glucose, 0.5% sodium phosphate/phosphoric acid buffer (pH 5.5), 0.5 g/l diammonium phosphate, 2 g/l yeast extract and 2 g/l peptone. This solution (45 ml) was added to 50 ml serum bottles, along with a magnetic stirrer bar, and autoclaved, where after sodium sulfite at concentrations of 5, 10, 20 and 40 mM was added, while some bottles had no sulfite added, which served as control (0 mM). […] This culture was incubated at 37° C. for 36 hours and used to inoculate all the serum bottles (10% v/v). The serum bottles were then sealed with an airtight septum and a metal ring clamp and two needles were inserted through the septum to allow for sampling. The serum bottles were placed on a magnetic stirrer plate at room temperature (since storage tanks are typically kept at room temperature), with stirring at 100 rpm. Samples were taken periodically and analyzed for glucose and lactic acid using HPLC. Experiments were performed in triplicate. The experiments were continued for 11 days.
# Lactobacillus sp. [1] = experiment: Bacterial contamination in a sugar-rich hydrolysate comprising 10% non-detoxified spruce hydrolysate, glucose by HPLC
# Procedure: as §1
# Experiments in this example were performed according to the description in example 2 with the difference that the sugar-rich hydrolysate contained 10% (v/v) non-detoxified spruce hydrolysate. This was done to simulate sugar-rich hydrolysate with some inhibitory impurities present that may arise from insufficient separation and/or washing.
# In the “Experiment A” samples, serum bottles were inoculated with Lactobacillus sp. at time 0 hours and incubated at room temperature for 21 days. Samples were taken periodically and analyzed for glucose and lactic acid (not shown here) using HPLC.
# In the “Experiment B” samples, serum bottles were inoculated twice—firstly on the first day and again two weeks later, to simulate a re-infection and test the longevity of the inhibitory effect of sodium sulfite.
# In Experiment “C”, the third group of serum bottles were inoculated after two weeks of storage at room temperature and inoculated with Lactobacillus (after 14 days).
# Lactobacillus sp. [2] = experiment: Storage of a sugar-rich hydrolysate inoculated with Lactobacillus sp., glucose by HPLC
# Procedure: as §1
# Storage of sugar-rich hydrolysate with addition of 5-40 mM was performed in accordance with the description of example 2. In this example, the samples were prepared and handled as in example 2. In other words, the “Experiment A” samples in this example are identical to those of example 2, and these were used as a reference for the “Experiment B” and “Experiment C” samples, as well as for validating the results of example 2.
# The “Experiment B” samples were inoculated with a Lactobacillus sp. at time 0 hours, and again after 336 hours. This was done to test the infection resistance of samples that were exposed to more than one culture of Lactobacillus sp; i.e. samples that were re-infected after two weeks.
# The samples in “Experiment C” were stored at ambient room temperature for 2 weeks, after which Lactobacillus was added to the flasks, after 336 hours. Samples were incubated for another 7 days and a total of 21 days as for the other two experiments.
structure (smiles),measurement,setting,value
O=S([O-])[O-].[Na+].[Na+] [sodium sulfite],concentration of lactic acid,lactic acid bacteria,0 g/L
same,growth of lactic acid bacteria,lactic acid bacteria,inhibited the growth
same,effect on Lactobacillus sp. growth,"Lactobacillus sp. [1]; 40 mM, hydrolysate with 10% (v/v) non-detoxified spruce hydrolysate, Experiments A-C",antimicrobial effect
same,growth relative to sample with no sulfite (detoxification effect),"Lactobacillus sp. [1]; 5-20 mM, hydrolysate with 10% (v/v) non-detoxified spruce hydrolysate",grew faster
same,Glucose,"Lactobacillus sp. [1]; Experiment A, 5 mM, 0 h",83.8 g/L
same,Glucose,"Lactobacillus sp. [1]; Experiment A, 5 mM, 168 h",71.9 g/L
same,Glucose,"Lactobacillus sp. [1]; Experiment A, 5 mM, 336 h",66.3 g/L
same,Glucose,"Lactobacillus sp. [1]; Experiment A, 5 mM, 508 h",65.9 g/L
same,Glucose,"Lactobacillus sp. [1]; Experiment A, 10 mM, 0 h",84.8 g/L
same,Glucose,"Lactobacillus sp. [1]; Experiment A, 10 mM, 168 h",72.9 g/L
same,Glucose,"Lactobacillus sp. [1]; Experiment A, 10 mM, 336 h",64.6 g/L
same,Glucose,"Lactobacillus sp. [1]; Experiment A, 10 mM, 508 h",63.8 g/L
same,Glucose,"Lactobacillus sp. [1]; Experiment A, 20 mM, 0 h",83.4 g/L
same,Glucose,"Lactobacillus sp. [1]; Experiment A, 20 mM, 168 h",75.2 g/L
same,Glucose,"Lactobacillus sp. [1]; Experiment A, 20 mM, 336 h",70.1 g/L
same,Glucose,"Lactobacillus sp. [1]; Experiment A, 20 mM, 508 h",67.2 g/L
same,Glucose,"Lactobacillus sp. [1]; Experiment A, 40 mM, 0 h",82.0 g/L
same,Glucose,"Lactobacillus sp. [1]; Experiment A, 40 mM, 168 h",80.1 g/L
same,Glucose,"Lactobacillus sp. [1]; Experiment A, 40 mM, 336 h",77.0 g/L
same,Glucose,"Lactobacillus sp. [1]; Experiment A, 40 mM, 508 h",82.5 g/L
same,Glucose,"Lactobacillus sp. [1]; Experiment B, 5 mM, 0 h",83.8 g/L
same,Glucose,"Lactobacillus sp. [1]; Experiment B, 5 mM, 168 h",72.6 g/L
same,Glucose,"Lactobacillus sp. [1]; Experiment B, 5 mM, 336 h",66.8 g/L
same,Glucose,"Lactobacillus sp. [1]; Experiment B, 5 mM, 508 h",69.0 g/L
same,Glucose,"Lactobacillus sp. [1]; Experiment B, 10 mM, 0 h",81.7 g/L
same,Glucose,"Lactobacillus sp. [1]; Experiment B, 10 mM, 168 h",71.5 g/L
same,Glucose,"Lactobacillus sp. [1]; Experiment B, 10 mM, 336 h",67.9 g/L
same,Glucose,"Lactobacillus sp. [1]; Experiment B, 10 mM, 508 h",73.4 g/L
same,Glucose,"Lactobacillus sp. [1]; Experiment B, 20 mM, 0 h",83.1 g/L
same,Glucose,"Lactobacillus sp. [1]; Experiment B, 20 mM, 168 h",69.0 g/L
same,Glucose,"Lactobacillus sp. [1]; Experiment B, 20 mM, 336 h",72.4 g/L
same,Glucose,"Lactobacillus sp. [1]; Experiment B, 20 mM, 508 h",72.1 g/L
same,Glucose,"Lactobacillus sp. [1]; Experiment B, 40 mM, 0 h",85.2 g/L
same,Glucose,"Lactobacillus sp. [1]; Experiment B, 40 mM, 168 h",86.6 g/L
same,Glucose,"Lactobacillus sp. [1]; Experiment B, 40 mM, 336 h",86.2 g/L
same,Glucose,"Lactobacillus sp. [1]; Experiment B, 40 mM, 508 h",86.3 g/L
same,Glucose,"Lactobacillus sp. [1]; Experiment C, 5 mM, 0 h",85.4 g/L
same,Glucose,"Lactobacillus sp. [1]; Experiment C, 5 mM, 168 h",84.8 g/L
same,Glucose,"Lactobacillus sp. [1]; Experiment C, 5 mM, 336 h",83.4 g/L
same,Glucose,"Lactobacillus sp. [1]; Experiment C, 5 mM, 508 h",77.1 g/L
same,Glucose,"Lactobacillus sp. [1]; Experiment C, 10 mM, 0 h",84.8 g/L
same,Glucose,"Lactobacillus sp. [1]; Experiment C, 10 mM, 168 h",81.7 g/L
same,Glucose,"Lactobacillus sp. [1]; Experiment C, 10 mM, 336 h",81.9 g/L
same,Glucose,"Lactobacillus sp. [1]; Experiment C, 10 mM, 508 h",75.5 g/L
same,Glucose,"Lactobacillus sp. [1]; Experiment C, 20 mM, 0 h",85.9 g/L
same,Glucose,"Lactobacillus sp. [1]; Experiment C, 20 mM, 168 h",82.3 g/L
same,Glucose,"Lactobacillus sp. [1]; Experiment C, 20 mM, 336 h",83.5 g/L
same,Glucose,"Lactobacillus sp. [1]; Experiment C, 20 mM, 508 h",79.5 g/L
same,Glucose,"Lactobacillus sp. [1]; Experiment C, 40 mM, 0 h",80.9 g/L
same,Glucose,"Lactobacillus sp. [1]; Experiment C, 40 mM, 168 h",81.0 g/L
same,Glucose,"Lactobacillus sp. [1]; Experiment C, 40 mM, 336 h",85.6 g/L
same,Glucose,"Lactobacillus sp. [1]; Experiment C, 40 mM, 508 h",82.6 g/L
same,growth of Lactobacillus sp.,"Lactobacillus sp. [2]; 5, 10, 20 and 40 mM, three weeks of incubation",inhibited the growth
same,Glucose,"Lactobacillus sp. [2]; Experiment A, 5 mM, 0 h",83.3 g/L
same,Glucose,"Lactobacillus sp. [2]; Experiment A, 5 mM, 172 h",84.0 g/L
same,Glucose,"Lactobacillus sp. [2]; Experiment A, 5 mM, 340 h",83.5 g/L
same,Glucose,"Lactobacillus sp. [2]; Experiment A, 5 mM, 510 h",83.2 g/L
same,Glucose,"Lactobacillus sp. [2]; Experiment A, 10 mM, 0 h",84.1 g/L
same,Glucose,"Lactobacillus sp. [2]; Experiment A, 10 mM, 172 h",85.3 g/L
same,Glucose,"Lactobacillus sp. [2]; Experiment A, 10 mM, 340 h",82.8 g/L
same,Glucose,"Lactobacillus sp. [2]; Experiment A, 10 mM, 510 h",82.2 g/L
same,Glucose,"Lactobacillus sp. [2]; Experiment A, 20 mM, 0 h",83.7 g/L
same,Glucose,"Lactobacillus sp. [2]; Experiment A, 20 mM, 172 h",85.6 g/L
same,Glucose,"Lactobacillus sp. [2]; Experiment A, 20 mM, 340 h",86.8 g/L
same,Glucose,"Lactobacillus sp. [2]; Experiment A, 20 mM, 510 h",84.7 g/L
same,Glucose,"Lactobacillus sp. [2]; Experiment A, 40 mM, 0 h",81.5 g/L
same,Glucose,"Lactobacillus sp. [2]; Experiment A, 40 mM, 172 h",83.2 g/L
same,Glucose,"Lactobacillus sp. [2]; Experiment A, 40 mM, 340 h",83.2 g/L
same,Glucose,"Lactobacillus sp. [2]; Experiment A, 40 mM, 510 h",83.6 g/L
same,glucose consumption,"Lactobacillus sp. [2]; Experiment A, flasks with added sodium sulfite, three weeks",no glucose consumption
same,bacterial growth,"Lactobacillus sp. [2]; Experiment B (inoculated at 0 h and 336 h), 5 mM or more, 21 days",No signs of bacterial growth
same,Glucose,"Lactobacillus sp. [2]; Experiment B, 5 mM, 0 h",82.3 g/L
same,Glucose,"Lactobacillus sp. [2]; Experiment B, 5 mM, 172 h",82.9 g/L
same,Glucose,"Lactobacillus sp. [2]; Experiment B, 5 mM, 340 h",82.6 g/L
same,Glucose,"Lactobacillus sp. [2]; Experiment B, 5 mM, 510 h",78.3 g/L
same,Glucose,"Lactobacillus sp. [2]; Experiment B, 10 mM, 0 h",82.9 g/L
same,Glucose,"Lactobacillus sp. [2]; Experiment B, 10 mM, 172 h",84.3 g/L
same,Glucose,"Lactobacillus sp. [2]; Experiment B, 10 mM, 340 h",81.5 g/L
same,Glucose,"Lactobacillus sp. [2]; Experiment B, 10 mM, 510 h",80.8 g/L
same,Glucose,"Lactobacillus sp. [2]; Experiment B, 20 mM, 0 h",82.8 g/L
same,Glucose,"Lactobacillus sp. [2]; Experiment B, 20 mM, 172 h",74.7 g/L
same,Glucose,"Lactobacillus sp. [2]; Experiment B, 20 mM, 340 h",86.0 g/L
same,Glucose,"Lactobacillus sp. [2]; Experiment B, 20 mM, 510 h",83.3 g/L
same,Glucose,"Lactobacillus sp. [2]; Experiment B, 40 mM, 0 h",80.2 g/L
same,Glucose,"Lactobacillus sp. [2]; Experiment B, 40 mM, 172 h",82.1 g/L
same,Glucose,"Lactobacillus sp. [2]; Experiment B, 40 mM, 340 h",82.0 g/L
same,Glucose,"Lactobacillus sp. [2]; Experiment B, 40 mM, 510 h",82.5 g/L
same,bacterial growth,"Lactobacillus sp. [2]; Experiment C (14 days storage at room temperature, then inoculated), concentrations above 5 mM",no growth was observed
same,Glucose,"Lactobacillus sp. [2]; Experiment C, 5 mM, 0 h",81.2 g/L
same,Glucose,"Lactobacillus sp. [2]; Experiment C, 5 mM, 172 h",81.6 g/L
same,Glucose,"Lactobacillus sp. [2]; Experiment C, 5 mM, 340 h",85.5 g/L
same,Glucose,"Lactobacillus sp. [2]; Experiment C, 5 mM, 510 h",82.0 g/L
same,Glucose,"Lactobacillus sp. [2]; Experiment C, 10 mM, 0 h",82.2 g/L
same,Glucose,"Lactobacillus sp. [2]; Experiment C, 10 mM, 172 h",81.8 g/L
same,Glucose,"Lactobacillus sp. [2]; Experiment C, 10 mM, 340 h",84.0 g/L
same,Glucose,"Lactobacillus sp. [2]; Experiment C, 10 mM, 510 h",82.4 g/L
same,Glucose,"Lactobacillus sp. [2]; Experiment C, 20 mM, 0 h",80.8 g/L
same,Glucose,"Lactobacillus sp. [2]; Experiment C, 20 mM, 172 h",80.3 g/L
same,Glucose,"Lactobacillus sp. [2]; Experiment C, 20 mM, 340 h",84.5 g/L
same,Glucose,"Lactobacillus sp. [2]; Experiment C, 20 mM, 510 h",83.3 g/L
same,Glucose,"Lactobacillus sp. [2]; Experiment C, 40 mM, 0 h",82.0 g/L
same,Glucose,"Lactobacillus sp. [2]; Experiment C, 40 mM, 172 h",81.6 g/L
same,Glucose,"Lactobacillus sp. [2]; Experiment C, 40 mM, 340 h",86.2 g/L
same,Glucose,"Lactobacillus sp. [2]; Experiment C, 40 mM, 510 h",82.0 g/L
